# Values quoted from earlier work, collected in patent publication US8088413B2, “Methods for improved cryo-chemotherapy tissue ablation” (Nuvue Therapeutics, Inc., priority 2004, dated 2012).
# Columns and labels:
# human prostate cancer = conditions: pretreatment; temperatures close to 0° C.
# [1] = test system: human prostate cancer cell line, PC3; conditions: free drug given 2 to 4 days prior to freezing; drug and cryo levels individually ineffective
Compound,effect on cryoinjury (human prostate cancer),kill efficacy of cryoinjury [1]
Tumor Necrosis Factor-alpha,augments the cryoinjury,
"O=c1[nH]cc(F)c(=O)[nH]1 [5-fluorouracil (5-FU), 5-fluorouracil]",,increased kill efficacy
